Data from patent US20090082425A1 (priority 2007, published 2009).

System: DU-145
Assay type: cell-based, human

## CC(=O)O[C@H]1C(=O)[C@@]2(C)[C@H]([C@H](OC(=O)c3ccccc3)[C@]3(O)C[C@H](OC(=O)[C@H](O)[C@@H](NC(=O)c4ccccc4)c4ccccc4)C(C)=C1C3(C)C)[C@]1(OC(C)=O)CO[C@@H]1C[C@@H]2O [Taxol]
  Cell survival rate (%): 63.88%
